Results: paper PMC11876601 (Molecular Systems Biology, 2025)
Where “and” joins values, the source holds several entries; their conditions need not be identical. Equal entries are not always repeated. Where two headings read alike, the source gives them in different places.

What was measured:
[1] = biological target: INCENP; design: method as in Reinecke et al. (2023); conditions: 5 cell line mix lysate, Kinobeads ε, ref Reinecke et al. (2023), cited from earlier work
[2] = biological target: TTK; design: method as in Reinecke et al. (2023); conditions: 5 cell line mix lysate, Kinobeads ε, ref Reinecke et al. (2023), cited from earlier work
[3] = test system: TBK1; conditions: TBK1, 5 cell line mix lysate, Kinobeads ε, ref Reinecke et al. (2023), cited from earlier work
[4] = test system: PDO UME051; assay: PDO viability assay (CellTiter-Glo, 72 h); format: cell-based, human; design: Curve bottom: scale not given here;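 for Curve top: fraction of plate-wise median vehicle signal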
Method: (§1) Primary patient-derived PDAC organoid (PDO) experiments were performed in the laboratories of Prof. Maximilian Reichert (University Hospital of the TU Munich, Germany, PDO set 1: B250, B535, B678) and Prof. Jens T. Siveke (University Hospital Essen, Germany; PDO set 2: UME008, UME012, UME051, UME053, UME060, UME061). PDOs were generated from surgical resection, EUS-guided fine needle biopsy (EUS-FNB), or ascites (Appendix Table S2). Surgical specimens were first minced with a sterile scalpel and subsequently washed with Anti-Anti solution and washing medium (PDO set 1), or vice versa (PDO set 2; Appendix Table S3). Biopsy samples were directly washed with an Anti-Anti solution and washing medium. Samples were digested using 1 ml of digestion medium at 37 °C while shaking, and the enzymatic reaction was stopped by adding 15 ml of washing medium (Appendix Table S3). If samples of PDO set 1 were blood-stained, tissue pellets were first incubated with ACK lysing buffer/red blood cells lysis buffer (Thermo Fisher Scientific) for 5 min and then digested using TrypLE (Thermo Fisher Scientific). The reversed procedure was applied for blood-stained samples of PDO set 2. For PDO generation from ascites, the material was first spun down at 500 × g for 5 min. Then, washing medium was added and the suspension was centrifuged at 300 × g for 5 min. If the pellet was blood-stained, ACK lysis buffer was added and incubated at room temperature.
(§2) For viability assays in PDOs, confluent organoids were removed from medium, and Matrigel was dissolved by adding 200 μl (PDO set 1) or 2 ml (PDO set 2) of Cell Recovery Solution (Corning), and additionally 500 μl of DPBS (PDO set 1 only). Samples were transferred into a falcon and incubated on ice for 30 min, followed by centrifugation at 300 × g at 4 °C for 5 min (after adding 10 ml washing medium for PDO set 2). Subsequently, TrypLE Express Enzyme (Thermo Fisher) was added to cell pellets and incubated for 2 × 5 min at 37 °C. The enzymatic reaction was quenched by DPBS (PDO set 1) or washing medium (PDO set 2), and samples were washed by centrifugation at 300 × g at 4 °C for 5 min. Five hundred cells/well were seeded in 384-well plates (Corning) in 50 μl of PDO medium containing 10% Matrigel. To allow PDO generation, cells were incubated for 4 days at 37 °C and 5% CO2. […] Experiments were pipetted manually (PDO set 1) or automatically using a TECAN D300e Digital Dispenser (HP; PDO set 2). Treatments were performed in eight replicates, except for PDO PPES045 (quadruplicates). After 72 h, cell viability was measured using the CellTiter-Glo Luminescent Cell Viability Assay (Promega) diluted 1:5 in the final volume of the well. After 20 min of incubation at room temperature under gentle shaking, the acquisition was performed in the microplate reader VantaSTAR (BMG Labtech) using 3000 gain for the amplification measurement of a detected signal (PDO set 1) or the Spark Multimode microplate reader (TECAN) at 800 ms integration time (PDO set 2).

[5] = test system: PDO UME012; assay: PDO viability assay (CellTiter-Glo, 72 h); format: cell-based, human; design: Curve bottom: scale not given here;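 for Curve top: fraction of plate-wise median vehicle signal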
Method: as §1, §2

[6] = test system: MAPK8; design: method as in Klaeger et al. (2017); conditions: lysate 4 cell line mix (Colo205, K-562, MV-4-11, and SK-N-BE(2)), Kinobeads y, ref Klaeger et al. (2017); cited from earlier work
[7] = test system: RPS6KA6; design: method as in Klaeger et al. (2017); conditions: lysate 4 cell line mix (Colo205, K-562, MV-4-11, and SK-N-BE(2)), Kinobeads y, ref Klaeger et al. (2017); cited from earlier work
[8] = test system: STK3; design: method as in Klaeger et al. (2017); conditions: STK3, 4 cell line mix lysate, Kinobeads y, ref Klaeger et al. (2017); cited from earlier work
[9] = test system: PRKAG1; design: method as in Klaeger et al. (2017); conditions: lysate 4 cell line mix (Colo205, K-562, MV-4-11, and SK-N-BE(2)), Kinobeads y, ref Klaeger et al. (2017); cited from earlier work
[10] = PDO UME051, GEM + Elimusertib (ATRi) dose1, per replicate
[11] = PDO UME051, GEM + Elimusertib (ATRi) dose2, per replicate
[12] = PDO UME051, GEM + Elimusertib (ATRi) dose3, per replicate
[13] = PDO UME051, GEM alone, per replicate
[14] = PDO UME012, GEM + Elimusertib (ATRi) dose1, per replicate
[15] = PDO UME012, GEM + Elimusertib (ATRi) dose2, per replicate
[16] = PDO UME012, GEM + Elimusertib (ATRi) dose3, per replicate
[17] = PDO UME012, GEM alone, per replicate

COc1cc(N2CCC(N3CCN(C)CC3)CC2)ccc1Nc1ncc(Cl)c(Nc2ccccc2P(C)(C)=O)n1 [Brigatinib]
Kd ([1]; read-out: KDapp): 1030 nM
EC50 [1]: 1160 nM
pKDapp [1]: 5.99
Kd ([2]; read-out: KDapp): 629 nM
EC50 [2]: 629 nM
pKDapp [2]: 6.20
EC50 [3]: 1020 nM
pKDapp [3]: 6.18
Kd ([3]; read-out: KDapp): 655 nM

Nc1ccn([C@@H]2O[C@H](CO)[C@@H](O)C2(F)F)c(=O)n1 [GEM, Gemcitabine]
EC50 ([4]; Homo sapiens, PDO UME051, GEM + Elimusertib (ATRi) dose1, mean of replicates, read-out: EC50 mean): 34.9 nM
EC50 ([4]; Homo sapiens, PDO UME051, GEM + Elimusertib (ATRi) dose2, mean of replicates, read-out: EC50 mean): 15.3 nM
EC50 ([4]; Homo sapiens, PDO UME051, GEM + Elimusertib (ATRi) dose3, mean of replicates, read-out: EC50 mean): 8.3 nM
EC50 ([4]; Homo sapiens, PDO UME051, GEM alone, mean of replicates, read-out: EC50 mean): 33.8 nM
EC50 ([4]; Homo sapiens, PDO UME051, GEM alone, read-out: EC50 mean): 33.8 nM
Curve bottom [4, 10]: 61.54 and 16.58 and 29.10 and 61.40 and 25.59 and 36.68 and 21.39 and 27.20
Curve slope [4, 10]: 0.20 and 0.21 and 0.19 and 0.27 and 0.15 and 0.25 and 0.16
Curve top [4, 10]: 1.01 and 0.92 and 0.96 and 0.94 and 1.28 and 1.37
pEC50 [4, 10]: 7.21 and 7.78 and 7.54 and 7.59 and 7.44 and 7.67 and 7.57
EC50 ([4]; PDO UME051, GEM + Elimusertib (ATRi) dose1, per replicate, read-out: EC50): 61.5 nM and 16.6 nM and 29.1 nM and 61.4 nM and 25.6 nM and 36.7 nM and 21.4 nM and 27.2 nM
Curve bottom [4, 11]: 15.70 and 19.38 and 5.56 and 12.34 and 19.98 and 22.85 and 24.50 and 1.89
Curve slope [4, 11]: 0.23 and 0.20 and 0.22 and 0.26 and 0.21 and 0.14 and 0.30
Curve top [4, 11]: 1.02 and 0.95 and 0.89 and 1.03
Curve bottom [4, 12]: 6.82 and 3.16 and 19.99 and 13.79 and 5.24 and 6.23 and 5.82 and 5.38
Curve slope [4, 12]: 0.26 and 0.20 and 0.24 and 0.23 and 0.30 and 0.15 and 0.16
Curve top [4, 12]: 0.75 and 0.88 and 1.32 and 1.31 and 0.95 and 0.93
pEC50 [4, 12]: 8.17 and 8.50 and 7.70 and 7.86 and 8.28 and 8.21 and 8.24 and 8.27
EC50 ([4]; PDO UME051, GEM + Elimusertib (ATRi) dose3, per replicate, read-out: EC50): 6.82 nM and 3.16 nM and 20 nM and 13.8 nM and 5.24 nM and 6.23 nM and 5.82 nM and 5.38 nM
Curve bottom [4, 13]: 27.81 and 28.79 and 47.23 and 24.70 and 49.88 and 54.38 and 18.12 and 19.12
Curve slope [4, 13]: 0.26 and 0.29 and 0.22 and 0.35 and 0.23 and 0.21 and 0.27 and 0.19
Curve top [4, 13]: 1.27 and 0.99 and 0.93 and 0.97
pEC50 [4, 13]: 7.56 and 7.54 and 7.33 and 7.61 and 7.30 and 7.26 and 7.74 and 7.72
EC50 ([4]; PDO UME051, GEM alone, per replicate, read-out: EC50): 27.8 nM and 28.8 nM and 47.2 nM and 24.7 nM and 49.9 nM and 54.4 nM and 18.1 nM and 19.1 nM
EC50 ([5]; Homo sapiens, PDO UME012, GEM + Elimusertib (ATRi) dose1, mean of replicates, read-out: EC50 mean): 12.6 nM
EC50 ([5]; Homo sapiens, PDO UME012, GEM + Elimusertib (ATRi) dose1, per replicate, read-out: EC50): 11.3 nM
EC50 ([5]; Homo sapiens, PDO UME012, GEM + Elimusertib (ATRi) dose1, per replicate, read-out: pEC50 (converted)): 11.2 nM
EC50 ([5]; Homo sapiens, PDO UME012, GEM + Elimusertib (ATRi) dose2, mean of replicates, read-out: EC50 mean): 3.06 nM
EC50 ([5]; Homo sapiens, PDO UME012, GEM + Elimusertib (ATRi) dose2, per replicate, read-out: EC50): 3.37 nM
EC50 ([5]; Homo sapiens, PDO UME012, GEM + Elimusertib (ATRi) dose2, per replicate, read-out: pEC50 (converted)): 3.39 nM
EC50 ([5]; Homo sapiens, PDO UME012, GEM + Elimusertib (ATRi) dose3, mean of replicates, read-out: EC50 mean): 2.42 nM
EC50 ([5]; Homo sapiens, PDO UME012, GEM alone, mean of replicates, read-out: EC50 mean): 29.1 nM
EC50 ([5]; Homo sapiens, PDO UME012, GEM alone, read-out: EC50 mean): 29.1 nM
Curve bottom [5, 14]: 11.29 and 15.69 and 14.76 and 8.69
Curve slope [5, 14]: 0.09 and 0.08 and 0.07
Curve top [5, 14]: 1.40 and 1.29 and 1.32 and 1.45
pEC50 [5, 14]: 7.80 and 7.83 and 8.06
EC50 ([5]; PDO UME012, GEM + Elimusertib (ATRi) dose1, per replicate, read-out: EC50): 15.7 nM and 14.8 nM and 8.69 nM
Curve bottom [5, 15]: 3.37 and 3.54 and 2.28
Curve slope [5, 15]: 0.0214 and 0.0222 and 0.0167
Curve top [5, 15]: 1.13 and 1.28 and 1.51
pEC50 [5, 15]: 8.45 and 8.64
EC50 ([5]; PDO UME012, GEM + Elimusertib (ATRi) dose2, per replicate, read-out: EC50): 3.54 nM and 2.28 nM
Curve bottom [5, 16]: 3.57 and 1.25 and 2.45
Curve slope [5, 16]: 0.02 and 0.05 and 0.0372
Curve top [5, 16]: 1.09 and 0.99 and 1.02
pEC50 [5, 16]: 8.45 and 8.90 and 8.61
EC50 ([5]; PDO UME012, GEM + Elimusertib (ATRi) dose3, per replicate, read-out: EC50): 3.57 nM and 1.25 nM and 2.45 nM
Curve slope [5, 17]: 0.62 and 0.42 and 0.70 and 0.52
Curve top [5, 17]: 1.21 and 1.18 and 1.06 and 1.19
pEC50 [5, 17]: 8.15 and 7.29 and 7.52 and 7.56
EC50 ([5]; PDO UME012, GEM alone, per replicate, read-out: EC50): 7.11 nM and 51.3 nM and 30.5 nM and 27.6 nM

C[C@]12O[C@H](C[C@]1(O)CO)n1c3ccccc3c3c4c(c5c6ccccc6n2c5c31)CNC4=O [Lestaurtinib]
EC50 [6]: 1210 nM
EC50 [7]: 2330 nM
EC50 [8]: 39.2 nM
EC50 [9]: 1400 nM
